Measured values taken from article PMC7795340, “First Synthesis of Racemic Trans Propargylamino-Donepezil, a Pleiotrope Agent Able to Both Inhibit AChE and MAO-B, with Potential Interest against Alzheimer’s Disease” (Molecules, 2020).
Several values for one entry are separate records, joined by “and”; a condition that tells them apart may be missing. Identical values can stand only once. Like-named read-outs stand apart in the source and are kept apart here.

Tests used:
human recombinant MAO-A = molecular target: T1, human recombinant MAO-A (Homo sapiens, UniProt P21397); test: (h)MAO-A inhibition, kynuramine fluorescence assay; format: biochemical; settings: 10^−5 M; kynuramine 50 µM
T1 construct: purchased Sigma Aldrich; host or cells: baculovirus infected insect cells (microsomes)
T1 sequence (P21397 1-527): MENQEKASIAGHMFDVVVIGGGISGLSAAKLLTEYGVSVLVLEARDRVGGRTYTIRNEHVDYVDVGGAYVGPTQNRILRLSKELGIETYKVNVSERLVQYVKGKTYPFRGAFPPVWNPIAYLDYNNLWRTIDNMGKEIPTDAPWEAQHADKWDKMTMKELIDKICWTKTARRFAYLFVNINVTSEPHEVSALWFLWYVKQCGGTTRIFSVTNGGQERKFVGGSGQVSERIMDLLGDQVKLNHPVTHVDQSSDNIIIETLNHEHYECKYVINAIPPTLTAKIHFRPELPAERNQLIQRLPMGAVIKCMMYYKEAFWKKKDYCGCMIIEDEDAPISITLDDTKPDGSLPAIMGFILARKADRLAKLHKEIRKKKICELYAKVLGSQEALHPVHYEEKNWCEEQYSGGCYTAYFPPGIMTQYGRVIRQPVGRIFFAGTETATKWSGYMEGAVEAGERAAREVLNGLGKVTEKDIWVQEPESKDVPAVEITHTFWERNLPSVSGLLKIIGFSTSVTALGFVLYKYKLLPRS
Method: (§1) Inhibition of human recombinant monoamine oxidases A (250 U/mg) and B (59 U/mg; microsomes from baculovirus infected insect cells; Sigma Aldrich) was determined as already described, measuring the fluorescence of 4-hydroxyquinoline (exc. 310 nm; em. 400 nm) produced by MAOs in the oxidative deamination of substrate kynuramine. […] Assays were performed in triplicate during three independent tests, in 96-well black polystyrene plates (Greiner Bio-One, Kremsmünster, Austria) using an Infinite M1000 Pro plate reader (Tecan, Cernusco s.N., Italy).

human recombinant MAO-B = molecular target: T2, human recombinant MAO-B (Homo sapiens, UniProt P27338); test: (h)MAO-B inhibition, kynuramine fluorescence assay; format: biochemical; settings: kynuramine 50 µM; for inhibition at 10 µM: 10^−5 M; for IC50: (h)MAO-B IC50 (µM) (n = 3), mean ± SEM, n = 3
T2 construct: purchased Sigma Aldrich; host or cells: baculovirus infected insect cells (microsomes)
T2 sequence (P27338 1-520): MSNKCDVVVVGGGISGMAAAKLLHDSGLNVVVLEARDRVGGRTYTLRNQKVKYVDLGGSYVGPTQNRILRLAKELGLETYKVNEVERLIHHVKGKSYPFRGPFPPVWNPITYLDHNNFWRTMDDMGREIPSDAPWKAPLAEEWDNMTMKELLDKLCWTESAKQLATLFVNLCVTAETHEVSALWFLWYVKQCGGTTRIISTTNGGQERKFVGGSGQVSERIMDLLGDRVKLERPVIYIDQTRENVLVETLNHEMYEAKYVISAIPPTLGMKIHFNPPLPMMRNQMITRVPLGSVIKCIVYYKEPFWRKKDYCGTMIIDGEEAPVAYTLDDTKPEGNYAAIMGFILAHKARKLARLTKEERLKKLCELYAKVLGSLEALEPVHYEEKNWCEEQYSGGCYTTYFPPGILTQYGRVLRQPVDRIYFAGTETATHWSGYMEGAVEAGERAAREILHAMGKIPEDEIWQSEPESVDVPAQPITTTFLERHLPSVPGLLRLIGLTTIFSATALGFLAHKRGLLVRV
Method: as §1

[1] = molecular target: (eq)BuChE (BuChE from equine serum) (Equus caballus, UniProt P81908); test: (eq)BuChE inhibition, Ellman test; format: biochemical; settings: for inhibition at 1 µM: read-out: (eq)BuChE % Inhibition at 10^−6 M
(eq)BuChE (BuChE from equine serum), sequence (P81908 whole entry): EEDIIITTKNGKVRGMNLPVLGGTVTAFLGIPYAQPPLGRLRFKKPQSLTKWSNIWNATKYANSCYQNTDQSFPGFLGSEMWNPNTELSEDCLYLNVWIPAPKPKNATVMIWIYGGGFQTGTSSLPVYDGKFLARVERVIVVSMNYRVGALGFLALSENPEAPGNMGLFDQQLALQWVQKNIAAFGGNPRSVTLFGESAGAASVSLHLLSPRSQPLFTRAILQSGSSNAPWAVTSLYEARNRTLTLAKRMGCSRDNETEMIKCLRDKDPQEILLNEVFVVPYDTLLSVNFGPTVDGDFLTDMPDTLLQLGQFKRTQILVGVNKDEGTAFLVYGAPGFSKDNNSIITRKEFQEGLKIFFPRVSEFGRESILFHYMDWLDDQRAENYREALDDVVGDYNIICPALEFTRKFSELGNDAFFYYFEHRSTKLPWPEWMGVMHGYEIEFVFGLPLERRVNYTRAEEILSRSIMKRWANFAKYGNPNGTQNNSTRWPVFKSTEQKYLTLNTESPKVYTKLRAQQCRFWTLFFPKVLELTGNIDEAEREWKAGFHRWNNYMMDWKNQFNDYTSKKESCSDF
Method: . DPZ was used as a reference.
Inhibitory capacity of compounds on AChE biological activity was evaluated using the spectrometric method of Ellman. Acetyl- or butyrylthiocholine iodide and 5,5-dithiobis-(2-nitrobenzoic) acid (DTNB) were purchased from Sigma Aldrich. Lyophilized BuChE from equine serum (Sigma Aldrich) was dissolved in 0.2 M phosphate buffer pH 7.4 such as to have enzyme solutions stock with 2.5 units/mL enzyme activity. AChE from human erythrocytes (buffered aqueous solution, ≥500 units/mg protein (BCA), Sigma Aldrich) was diluted in 20 mM HEPES buffer pH 8, 0.1% Triton X-100 such as to have enzyme solution with 0.25 unit/mL enzyme activity. In the procedure, 100 μL of 0.3 mM DTNB dissolved in phosphate buffer pH 7.4 was added to the 96 wells plate followed by 50 μL of test compound solution and 50 μL of enzyme (0.05 U final). After 5 min of preincubation at 25 °C, the reaction was then initiated by the injection of 50 μL of 10 mM acetyl- or butyrylthiocholine iodide solution. The hydrolysis of acetyl- or butyrylthiocholine was monitored by the formation of yellow 5-thio-2-nitrobenzoate anion as the result of the reaction of DTNB with thiocholine, released by the enzymatic hydrolysis of acetyl- or butyrylthiocholine, at a wavelength of 412 nm using a 96-well microplate plate reader (TECAN Infinite M200, Lyon, France). […]. The rate of absorbance increase at 412 nm was followed every minute for 10 min. Assays were performed in simplicate during three independent tests, with a blank containing all components except acetyl- or butyrylthiocholine, in order to account for non-enzymatic reaction. The reaction slopes were compared, and the percent inhibition due to the presence of test compounds was calculated by the following expression: 100 − (vi/v0 × 100) where vi is the rate calculated in the presence of inhibitor and v0 is the enzyme activity.
First screening of AChE and BuChE activity was carried out at a 10^−6 or 10^−5 M concentration of compounds under study. […]

[2] = molecular target: (h)AChE (AChE from human erythrocytes) (Homo sapiens, UniProt P22303); test: biochemical; settings: for inhibition at 1 µM: read-out: (h)AChE % Inhibition at 10^−6 M
(h)AChE (AChE from human erythrocytes), sequence (P22303 other isoform, or with tags, fused parts or gaps): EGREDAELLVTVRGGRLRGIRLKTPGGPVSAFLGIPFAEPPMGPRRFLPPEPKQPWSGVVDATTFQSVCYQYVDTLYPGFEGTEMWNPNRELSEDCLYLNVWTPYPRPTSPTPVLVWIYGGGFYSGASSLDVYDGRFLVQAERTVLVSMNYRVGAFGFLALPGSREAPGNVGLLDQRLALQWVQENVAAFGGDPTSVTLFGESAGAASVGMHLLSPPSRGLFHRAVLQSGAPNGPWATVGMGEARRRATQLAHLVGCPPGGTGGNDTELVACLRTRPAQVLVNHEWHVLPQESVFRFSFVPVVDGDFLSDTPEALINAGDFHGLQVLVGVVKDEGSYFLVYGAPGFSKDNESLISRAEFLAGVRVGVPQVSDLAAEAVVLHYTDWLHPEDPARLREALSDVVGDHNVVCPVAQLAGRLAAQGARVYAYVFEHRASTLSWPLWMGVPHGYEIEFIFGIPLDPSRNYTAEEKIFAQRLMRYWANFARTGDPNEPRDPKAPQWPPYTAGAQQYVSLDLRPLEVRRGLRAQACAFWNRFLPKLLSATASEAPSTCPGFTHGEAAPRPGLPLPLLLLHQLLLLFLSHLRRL
Method: DPZ was used as a reference.
Inhibitory capacity of compounds on AChE biological activity was evaluated using the spectrometric method of Ellman. Acetyl- or butyrylthiocholine iodide and 5,5-dithiobis-(2-nitrobenzoic) acid (DTNB) were purchased from Sigma Aldrich. Lyophilized BuChE from equine serum (Sigma Aldrich) was dissolved in 0.2 M phosphate buffer pH 7.4 such as to have enzyme solutions stock with 2.5 units/mL enzyme activity. AChE from human erythrocytes (buffered aqueous solution, ≥500 units/mg protein (BCA), Sigma Aldrich) was diluted in 20 mM HEPES buffer pH 8, 0.1% Triton X-100 such as to have enzyme solution with 0.25 unit/mL enzyme activity. In the procedure, 100 μL of 0.3 mM DTNB dissolved in phosphate buffer pH 7.4 was added to the 96 wells plate followed by 50 μL of test compound solution and 50 μL of enzyme (0.05 U final). After 5 min of preincubation at 25 °C, the reaction was then initiated by the injection of 50 μL of 10 mM acetyl- or butyrylthiocholine iodide solution. […] Assays were performed in simplicate during three independent tests, with a blank containing all components except acetyl- or butyrylthiocholine, in order to account for non-enzymatic reaction. The reaction slopes were compared, and the percent inhibition due to the presence of test compounds was calculated by the following expression: 100 − (vi/v0 × 100) where vi is the rate calculated in the presence of inhibitor and v0 is the enzyme activity.

SMILES	inhibition at 10 µM (human recombinant MAO-A) [%]	inhibition at 10 µM (human recombinant MAO-B) [%]	IC50 (human recombinant MAO-B)	IC50 ([1]; (eq)BuChE IC50 (µM) (n = 3), mean ± SEM, n = 3)	inhibition at 1 µM [1] [%]	IC50 ([2]; (h)AChE IC50 (µM) (n = 3), mean ± SEM, n = 3)	relative selectivity: BuChE inhibited at a concentration fold greater than AChE ([2]; BuChE IC50 vs (h)AChE IC50) [fold]	inhibition at 1 µM [2] [%]	IC50 ([2]; value in nM, read-out: (h)AChE IC50) [µM]
C#CCNC1CC(=O)c2cc(OC)c(OC)cc21 (centres unmarked) [Compound 5, 5,6-Dimethoxy-3-(prop-2-ynylamino)indan-1-one]	< 10	45	13.4 ± 3.4 µM	–	–	–	–	–	–
C#CCN[C@@H]1c2cc(OC)c(OC)cc2C(=O)[C@H]1CC1CCN(Cc2ccccc2)CC1 (relative stereo) [Trans-PADPZ (19), Trans 2-[(1-Benzyl-4-piperidyl)methyl]-5,6-dimethoxy-3-(prop-2-ynylamino)indan-1-one]	13	52	6.4 µM and 6.43 µM	4.23 ± 0.375	74	0.4 µM and 0.442 µM	10	71	0.44
COc1cc2c(cc1OC)C(NC(C)=O)C(CC1CCN(Cc3ccccc3)CC1)C2=O (centres unmarked) [Compound 16]	–	–	–	–	39	–	–	4	–
